# Laboratory results: US20180125032A1, “Automated method and system for introducing Liquid iodine into drinking water” (priority 2010, published 2018)
# Columns and labels:
# [1] = Loss of I2 from water at room temperature (hydrolysis / out gassing); assay type: physicochemical
# Procedure: The only significant anti-infective iodine species in water is molecular iodine (I2). In the pH range of 6.0<->7.0, I2 is favored when I2 is added directly into water. […] If the pH of the water is kept at about pH 6.0, I2 is favored, but if the pH is above 7.0, I2 will hydrolyze (3) to I^− and HOI and I3^− (7) can form and accumulate in the water. I have determined experimentally that I2 is lost from the water at room temperature at a linear rate of about 0.3 mcg/mL/hour when the pH of the water was adjusted to ˜pH5-5.5 with acetic acid to prolong survival of I2 in water. Thus after 24 hours >90% of the I2 is lost either to hydrolysis
# or volatile I2 via out gassing. At higher pH, the iodine will dissipate faster or be converted to HOI. At neutral pH=7 the I2 loss is ˜0.5 mcg/mL/hr so that >90% is gone within 4 hours.
# [2] = Pets drinking iodinated water, observation for ill effects; assay type: in vivo, dogs and cats
smiles,measurement,setting,value
"II [I2, molecular iodine]",I2 lost (hydrolysis or out gassing),"[1]; after 24 hours, ~pH5-5.5, room temperature",> 90%
same,I2 loss rate,[1]; neutral pH=7,~0.5 µg/mL/h
same,rate of I2 loss from the water (linear),"[1]; room temperature, water adjusted to ~pH5-5.5 with acetic acid",about 0.3 mcg/mL/hour
same,I2 gone,"[1]; within 4 hours, neutral pH=7",> 90%
same,ill effects,"[2]; dogs and cats followed for 3 weeks, 1-5 mcg/mL in drinking water",no ill effects were noted
same,"changes in pet behavior, food consumption or excretion","[2]; two 35 kg dogs and two 4 kg cats, drinking water with average about 5 mcg/mL I2, followed for 4 days","no obvious changes in pet behavior, food consumption or excretion"
